Assays:
[1] = target: Muscarinic acetylcholine receptor M3 (Homo sapiens, UniProt P20309); assay: Muscarinic Receptor Binding Assay: The study of binding to human muscarinic M1, M2, M3, M4 and M5 receptors was performed using commercial membranes (Perkin Elmer) prepared from CHO-K1 cells. Radioligand binding experiments were conducted in 96 polypropylene well plates in a total volume of 200 μl. All reagents were dissolved in assay binding buffer (PBS with calcium and magnesium, SIGMA), except compounds that were dissolved in DMSO 100%. Non-specific binding (NSB) was measured in the presence of 1 μM atropine. [3H]-NMS was used as the radioligand at a concentration of 1 nM for M2, M3 and M5 and 0.3 nM for M1 and M4. [3H]-NMS and antagonists were incubated with membranes that express human muscarinic receptors M1, M2, M3, M4 and M5 at concentrations of 8.1, 10, 4.9, 4.5 and 4.9 μg/well, respectively. After an incubation period of two hours with gentle shaking, 150 μl of the reaction mix were transferred to 96 GF/C filter plates (Millipore), previously treated with wash buffer (Tris 50 mM; NaCl 100 mM; pH: 7.4), containing 0.05% PEI (Sigma) during one hour. Bound and free [3H]-NMS were separated by rapid vacuum filtration in a manifold from Millipore and washed four times with ice cold wash buffer. After drying 30 min, 30 μl of OPTIPHASE Supermix were added to each well and radioactivity quantified using a Microbeta microplate scintillation counter.; type: cell-based
Sequence of Muscarinic acetylcholine receptor M3 (P20309 whole entry): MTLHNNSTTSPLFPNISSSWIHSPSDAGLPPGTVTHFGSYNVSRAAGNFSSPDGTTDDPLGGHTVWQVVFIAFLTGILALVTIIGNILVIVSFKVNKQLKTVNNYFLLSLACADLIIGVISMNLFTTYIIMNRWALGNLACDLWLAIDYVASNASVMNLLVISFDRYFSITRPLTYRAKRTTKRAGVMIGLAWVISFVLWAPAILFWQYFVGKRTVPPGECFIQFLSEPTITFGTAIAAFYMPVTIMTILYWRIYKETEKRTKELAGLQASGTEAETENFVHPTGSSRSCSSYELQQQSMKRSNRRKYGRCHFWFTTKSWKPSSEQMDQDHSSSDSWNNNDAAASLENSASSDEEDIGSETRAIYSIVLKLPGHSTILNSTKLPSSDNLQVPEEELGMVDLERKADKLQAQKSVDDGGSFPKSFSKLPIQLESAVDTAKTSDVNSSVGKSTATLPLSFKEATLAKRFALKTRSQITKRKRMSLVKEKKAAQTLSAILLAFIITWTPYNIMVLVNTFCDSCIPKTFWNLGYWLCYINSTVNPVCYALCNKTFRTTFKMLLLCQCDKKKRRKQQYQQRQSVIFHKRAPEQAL

[2] = target: Beta-2 adrenergic receptor (Homo sapiens, UniProt P07550); assay: Adrenergic Receptor Binding Assay: The study of binding to human adrenergic beta1 and beta2 receptors was performed using commercial membranes prepared from Sf9 cells where they are overexpressed (Perkin Elmer). The membrane suspensions (16 μg/well for beta1 and 5 μg/well for beta2) in assay buffer (75 mM Tris/HCl with 12.5 mM MgCl2 and 2 mM EDTA pH=7.4) were incubated with 0.14 or 0.6 nM of 3H-CGP12177 (Amersham) for beta 1 and beta 2 receptors respectively in a final volume of 250 μl, in GFC Multiscreen 96 well plates (Millipore) previously treated with assay buffer containing 0.3% PEI (Sigma). Non specific binding was measured in the presence of 1 μM propanolol. Incubation was maintained for 60 minutes at room temperature and with gentle shaking. The binding reactions were terminated by filtration and washing with 2.5 volumes of Tris/HCl 50 mM pH=7.4.; type: cell membranes
Sequence of Beta-2 adrenergic receptor (P07550 whole entry): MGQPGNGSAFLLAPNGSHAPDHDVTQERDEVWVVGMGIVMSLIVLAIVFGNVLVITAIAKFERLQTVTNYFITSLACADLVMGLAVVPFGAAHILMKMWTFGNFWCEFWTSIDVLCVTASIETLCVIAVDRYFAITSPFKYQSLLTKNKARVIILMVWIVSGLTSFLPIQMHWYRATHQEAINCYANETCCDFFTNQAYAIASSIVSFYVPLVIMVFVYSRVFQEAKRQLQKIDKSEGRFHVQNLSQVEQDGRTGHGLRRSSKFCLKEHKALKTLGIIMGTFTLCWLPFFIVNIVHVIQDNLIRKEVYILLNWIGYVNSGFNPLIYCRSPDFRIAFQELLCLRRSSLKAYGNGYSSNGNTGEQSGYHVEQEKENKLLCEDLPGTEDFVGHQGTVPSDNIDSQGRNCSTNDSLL

CN(CCOc1ccc(CCNC[C@H](O)c2ccc(O)c3[nH]c(=O)ccc23)cc1)C1CCC(OC(=O)C(O)(c2cccs2)c2cccs2)CC1 (stereo partly specified)
IC50 [1]: 1.3 nM | IC50 [2]: 36 nM

CN(CCC(=O)Nc1ccc(CNC[C@H](O)c2ccc(O)c3[nH]c(=O)ccc23)cc1Cl)[C@H]1CC[C@H](OC(=O)C(O)(c2cccs2)c2cccs2)CC1
IC50 [1]: 2.2 nM | IC50 [2]: 6.7 nM

COc1cc(NC(=O)CCN(C)[C@H]2CC[C@H](OC(=O)C(O)(c3cccs3)c3cccs3)CC2)c(Cl)cc1CNC[C@H](O)c1ccc(O)c2[nH]c(=O)ccc12
IC50 [1]: 1.1 nM | IC50 [2]: 8.5 nM

Reference: ChEMBL document CHEMBL3886646, “Cyclohexylamine derivatives having β2 adrenergic agonist and M3 muscarinic antagonist activities” (2016)
